For 22 compounds, IC50 and EC50 results are on record in US20230183216A1, “PYRIDIZIN-3(2H)-ONE DERIVATIVES” (Gilead Sciences, Inc., priority 2021, published 2023).

One experiment deals with T1, PARP7 (Homo sapiens, UniProt Q7Z3E1).
T1 sequence (Q7Z3E1 1-657): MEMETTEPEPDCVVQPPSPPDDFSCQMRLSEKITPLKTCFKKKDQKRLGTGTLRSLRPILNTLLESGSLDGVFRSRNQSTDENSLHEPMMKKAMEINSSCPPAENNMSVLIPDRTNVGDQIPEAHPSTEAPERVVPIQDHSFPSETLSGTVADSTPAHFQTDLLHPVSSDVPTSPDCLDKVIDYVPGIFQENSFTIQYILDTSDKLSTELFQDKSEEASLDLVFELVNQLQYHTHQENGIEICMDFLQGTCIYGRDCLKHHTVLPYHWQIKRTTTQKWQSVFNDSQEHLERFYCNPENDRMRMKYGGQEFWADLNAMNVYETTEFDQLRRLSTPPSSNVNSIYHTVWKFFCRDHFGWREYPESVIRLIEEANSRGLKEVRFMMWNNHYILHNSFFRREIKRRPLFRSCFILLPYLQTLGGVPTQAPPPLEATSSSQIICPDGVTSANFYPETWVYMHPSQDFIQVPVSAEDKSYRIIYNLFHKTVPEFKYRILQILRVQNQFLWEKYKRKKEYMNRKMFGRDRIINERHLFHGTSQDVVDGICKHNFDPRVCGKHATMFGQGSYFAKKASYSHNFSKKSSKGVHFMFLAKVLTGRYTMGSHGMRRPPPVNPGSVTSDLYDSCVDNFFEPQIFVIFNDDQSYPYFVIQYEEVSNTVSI
Briefly: biochemical.

The test system of experiment [1] is STAT1 (phosphorylated at Tyr701) in NCI-H1373 cells. Briefly: Phospho-STAT1 (Tyr701) LANCE Ultra TR-FRET Detection Assay. The settings on record: Homo sapiens, 48 hours, induction of pSTAT1, normalized to 10 uM positive control and DMSO, 4-parameter fit, read-out: NH1373 pSTAT1 EC50. It is filed as cell-based. On the procedure:
Phospho-STAT1 (Tyr701 LANCE Ultra TR-FRET Detection Assay
LANCE Ultra phospho-STAT1 (Tyr701) kits available from Perkin Elmer are designed for the detection of phosphorylated STAT1 in cell lysates using a simple, homogeneous LANCE Ultra sandwich assay (Cat. #TRF4028M). This assay is intended for assessing compound induction of endogenous levels of cellular STAT1 (phosphorylated at Tyr701) in NCI-H1373 cells. The NCI-H1373 cells are cultured in RPMI 1640 media containing 10% heat inactivated FBS, GlutaMAX, 1% Penicillin-Streptomycin. An Echo acoustic liquid handler is used to transfer 60 nanoliters of compound dilutions using the Echo Qualified, 384-well polypropylene microplate clear flat bottom source plates into a Greiner (#781080) cell culture microplate. NCI-H1373 cells are seeded into these compound-spotted culture plates at 30,000 cells/well in a 60 uL volume in growth media. The plates are incubated in a 5% CO2 humidified incubator at 37° C. for 48 hours. […] Briefly, 20 μL of supplemented lysis buffer is added to each well and allowed to shake for 1 hour at 400 rpm. Next, 5 ul of remixed antibody solutions (vol/vol) prepared in detection buffer are added to each well and allowed to incubate at room temperature overnight. After spinning the plate down at 300 rpm for […], the plate is read on an EnVision plate reader set up for Eu3+ Cryptate and fluorescence emission is measured at two different wavelengths (665 nm and 620 nm).
A general note: Time-resolved FRET reads energy transfer from a long-lived donor to a nearby acceptor.

pEC50, pIC50: −log10 of the molar value. Some results are limits rather than exact numbers.
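Wherever IC50 is given: MSD light signal quantifying PARP7 captured by a plate-immobilized probe, read after 1.5 h equilibration plus 1.5 h with SULFO-TAG anti-GST antibody at room temperature.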

Method for PARP7: Probe Displacement Assay for PARP7 Displacement of a biotinylated probe (RBN011147; Wigle et al., Cell Chemical Biology, 2020, pp. 877-887) from the PARP7 NAD+-binding site was measured in vitro using a Mesoscale Discovery electrochemiluminescent assay. […] Next, 10 μl of 10 nM PARP7 protein incubated for 1 hour at room temperature with a dose response curve of each test compound in a Greiner LDV polypropylene plate (#781201) is added to the MSD plate containing the immobilized probe. The interaction is allowed to reach equilibrium for 1.5 hours, and then 10 ul of SULFO-TAG labeled anti-GST antibody (Cat #R32AA-1) is added to each well and allowed to incubate for an additional 1.5 hours at room temperature. Finally, 10 μl of MSD read buffer T (4×, Cat. #R92C-1) is added to each well using a Bravo liquid handler to prevent air bubbles in the wells, and the plates are subsequently read in an MSD instrument. Light intensity is then measured to quantify the amount of PARP7 bound to the immobilized probe on the plate.

By pIC50 is commonly meant the negative decadic logarithm of the IC50, by convention in mol/L. Low values mean a large IC50, high ones a small IC50. In general, pEC50 refers to −log10 of the EC50, conventionally taken in molar units. `O=C([C@@H]1C[C@@H]1CNc1cc(C(F)(F)F)c(=O)[nH]n1)N1CCN(c2ncc(C(F)(F)F)cn2)CC1` (racemic) [Example 24, Cis-(+)-4-(trifluoromethyl)-6-(((2-(4-(5-(trifluoromethyl)pyrimidin-2-yl)piperazine-1-carbonyl)cyclopropyl)methyl)amino)pyridazin-3(2H)-one]: at PARP7, the pIC50 is 8.99. Besides, in experiment [1], the pEC50 is 5.53.
The compound `O=C(CCC[C@@H]1CCCc2c1n[nH]c(=O)c2C(F)(F)F)N1CCN(c2ncc(C(F)(F)F)cn2)CC1` (single isomer, unassigned) [Example 76] had a pIC50 against PARP7 of 9.65. For the same compound, the pEC50 in experiment [1] was 7.42.
`O=C(CCC[C@H]1CCCc2c1n[nH]c(=O)c2C(F)(F)F)N1CCN(c2ncc(C(F)(F)F)cn2)CC1` (single isomer, unassigned) [Example 77] showed a pIC50 against PARP7 of 8.85. For the same compound, in experiment [1], the negative-log EC50 (pEC50) is 6.28.
`O=C(CCCCc1cc(C(F)(F)F)c(=O)[nH]n1)N1CCN(c2ncc(C(F)(F)F)cn2)CC1` [Example 1, 6-(5-oxo-5-(4-(5-(trifluoromethyl)pyrimidin-2-yl)piperazin-1-yl)pentyl)-4-(trifluoromethyl)pyridazin-3(2H)-one] showed a pIC50 on PARP7 of 9.54. Further, in experiment [1], the pEC50 was 7.22.
The corresponding values for `O=C(Cc1ccccc1-c1cc(C(F)(F)F)c(=O)[nH]n1)N1CCN(c2ncc(C(F)(F)F)cn2)CC1` [Example 4, 6-(2-(2-oxo-2-(4-(5-(trifluoromethyl)pyrimidin-2-yl)piperazin-1-yl)ethyl)phenyl)-4-(trifluoromethyl)pyridazin-3(2H)-one] are 7.44 and ≤ 5.00.
The compound `O=C(CCc1cc(C(F)(F)F)c(=O)[nH]n1)N1CCN(c2ncc(C(F)(F)F)cn2)CC1` [Example 7, 6-(3-oxo-3-(4-(5-(trifluoromethyl)pyrimidin-2-yl)piperazin-1-yl)propyl)-4-(trifluoromethyl)pyridazin-3(2H)-one] showed a pIC50 on PARP7 of 9.02. Besides, the pEC50 in experiment [1] was 6.46.
On PARP7, `CC(CCCC(=O)N1CCN(c2ncc(C(F)(F)F)cn2)CC1)c1cc(C(F)(F)F)c(=O)[nH]n1` (stereo not drawn) [Example 8, 6-(6-oxo-6-(4-(5-(trifluoromethyl)pyrimidin-2-yl)piperazin-1-yl)hexan-2-yl)-4-(trifluoromethyl)pyridazin-3(2H)-one] gave a pIC50 of 8.86. Also, in experiment [1], the pEC50 was 6.15.
For `O=C(N1CCN(c2ncc(C(F)(F)F)cn2)CC1)C1(CCCc2cc(C(F)(F)F)c(=O)[nH]n2)CC1` [Example 9, 4-(trifluoromethyl)-6-(3-(1-(4-(5-(trifluoromethyl)pyrimidin-2-yl)piperazine-1-carbonyl)cyclopropyl)propyl)pyridazin-3(2H)-one], in that order: 8.84 and 5.75.
For `O=C(CCCc1cc(C(F)(F)F)c(=O)[nH]n1)N1CCN(c2ncc(C(F)(F)F)cn2)CC1` [Example 11, 6-(4-oxo-4-(4-(5-(trifluoromethyl)pyrimidin-2-yl)piperazin-1-yl)butyl)-4-(trifluoromethyl)pyridazin-3(2H)-one], the negative-log IC50 (pIC50) against PARP7 was 8.33. For the same compound, the pEC50 in experiment [1] is 5.82.
Turning to `O=C(CC1(CNc2cc(C(F)(F)F)c(=O)[nH]n2)CC1)N1CCN(c2ncc(C(F)(F)F)cn2)CC1` [Example 12, 6-(((1-(2-oxo-2-(4-(5-(trifluoromethyl)pyrimidin-2-yl)piperazin-1-yl)ethyl)cyclopropyl)methyl)amino)-4-(trifluoromethyl)pyridazin-3(2H)-one], the pIC50 at PARP7 was 9.44. Moreover, the pEC50 in experiment [1] was 6.70.
On PARP7, `O=C(OCCCc1cc(C(F)(F)F)c(=O)[nH]n1)N1CCN(c2ncc(C(F)(F)F)cn2)CC1` [Example 13, 3-(6-oxo-5-(trifluoromethyl)-1,6-dihydropyridazin-3-yl)propyl 4-(5-(trifluoromethyl)pyrimidin-2-yl)piperazine-1-carboxylate] gave a pIC50 of 8.87. In addition, in experiment [1], the pEC50 is 5.93.
The compound `O=C(OC/C=C/c1cc(C(F)(F)F)c(=O)[nH]n1)N1CCN(c2ncc(C(F)(F)F)cn2)CC1` [Example 14, (E)-3-(6-oxo-5-(trifluoromethyl)-1,6-dihydropyridazin-3-yl)allyl 4-(5-(trifluoromethyl)pyrimidin-2-yl)piperazine-1-carboxylate] gave a pIC50 on PARP7 of 8.91. Moreover, in experiment [1], the pEC50 was 6.00.
Regarding `O=C(CCCNc1cc(C(F)(F)F)c(=O)[nH]n1)N1CCN(c2ncc(C(F)(F)F)cn2)CC1` [Example 15, 6-((4-oxo-4-(4-(5-(trifluoromethyl)pyrimidin-2-yl)piperazin-1-yl)butyl)amino)-4-(trifluoromethyl)pyridazin-3(2H)-one], at PARP7, the pIC50 is 9.58. For the same compound, the pEC50 in experiment [1] was 7.14.
In turn, `O=C(CNc1cc(C(F)(F)F)c(=O)[nH]n1)N1CCN(c2ncc(C(F)(F)F)cn2)CC1` [Example 16, 6-((2-oxo-2-(4-(5-(trifluoromethyl)pyrimidin-2-yl)piperazin-1-yl)ethyl)amino)-4-(trifluoromethyl)pyridazin-3(2H)-one] showed a pIC50 against PARP7 of 8.94. Further, the pEC50 in experiment [1] was 6.77.
Turning to `O=C(CCNc1cc(C(F)(F)F)c(=O)[nH]n1)N1CCN(c2ncc(C(F)(F)F)cn2)CC1` [Example 17, 6-((3-oxo-3-(4-(5-(trifluoromethyl)pyrimidin-2-yl)piperazin-1-yl)propyl)amino)-4-(trifluoromethyl)pyridazin-3(2H)-one], the negative logarithm of the IC50 (pIC50) against PARP7 is 7.92. In experiment [1], the pEC50 was 6.01.
`O=C(c1cccc(Nc2cc(C(F)(F)F)c(=O)[nH]n2)c1)N1CCN(c2ncc(C(F)(F)F)cn2)CC1` [Example 18, 4-(trifluoromethyl)-6-((3-(4-(5-(trifluoromethyl)pyrimidin-2-yl)piperazine-1-carbonyl)phenyl)amino)pyridazin-3(2H)-one] gave a pIC50 on PARP7 of 7.49. For the same compound, the pEC50 in experiment [1] was ≤ 5.00.
On to `O=C(c1cccc(CNc2cc(C(F)(F)F)c(=O)[nH]n2)c1)N1CCN(c2ncc(C(F)(F)F)cn2)CC1` [Example 19, 4-(trifluoromethyl)-6-((3-(4-(5-(trifluoromethyl)pyrimidin-2-yl)piperazine-1-carbonyl)benzyl)amino)pyridazin-3(2H)-one], for which the pIC50 against PARP7 is 7.79. Also, the pEC50 in experiment [1] was ≤ 5.00.
Take `C[C@H](Nc1cc(C(F)(F)F)c(=O)[nH]n1)C(=O)N1CCN(c2ncc(C(F)(F)F)cn2)CC1` [Example 64, 3-[[(1S)-1-methyl-2-oxo-2-[4-[5-(trifluoromethyl)pyrimidin-2-yl]piperazin-1-yl]ethyl]amino]-5-(trifluoromethyl)-1H-pyridazin-6-one]: the pEC50 in experiment [1] was 6.47.
As to `O=C([C@H]1CC[C@H](Nc2cc(C(F)(F)F)c(=O)[nH]n2)C1)N1CCN(c2ncc(C(F)(F)F)cn2)CC1` [Example 65, 5-(trifluoromethyl)-3-[[(1S,3S)-3-[4-[5-(trifluoromethyl)pyrimidin-2-yl]piperazine-1-carbonyl]cyclopentyl]amino]-1H-pyridazin-6-one], in experiment [1], the pEC50 is ≤ 5.00.
In the case of `C[C@@H](Nc1cc(C(F)(F)F)c(=O)[nH]n1)C(=O)N1CCN(c2ncc(C(F)(F)F)cn2)CC1` [Example 66, 3-[[(1R)-1-methyl-2-oxo-2-[4-[5-(trifluoromethyl)pyrimidin-2-yl]piperazin-1-yl]ethyl]amino]-5-(trifluoromethyl)-1H-pyridazin-6-one], in experiment [1], the pEC50 was ≤ 5.00.
For the compound `O=C(C[C@@H]1CCc2c1n[nH]c(=O)c2C(F)(F)F)N1CCN(c2ncc(C(F)(F)F)cn2)CC1` [Example 80, (S)-7-(2-oxo-2-(4-(5-(trifluoromethyl)pyrimidin-2-yl)piperazin-1-yl)ethyl)-4-(trifluoromethyl)-2,5,6,7-tetrahydro-3H-cyclopenta[c]pyridazin-3-one], the pEC50 in experiment [1] is 6.37.
With `O=C(C[C@H]1CCc2c1n[nH]c(=O)c2C(F)(F)F)N1CCN(c2ncc(C(F)(F)F)cn2)CC1` [Example 81, (R)-7-(2-oxo-2-(4-(5-(trifluoromethyl)pyrimidin-2-yl)piperazin-1-yl)ethyl)-4-(trifluoromethyl)-2,5,6,7-tetrahydro-3H-cyclopenta[c]pyridazin-3-one], in experiment [1], the pEC50 is ≤ 5.00.
